We go through 36 molecules from patent publication US20240228463A1, “SODIUM CHANNEL INHIBITORS AND METHODS OF DESIGNING SAME” (Genentech, Inc., priority 2021, published 2024).

The assay concerns the target T1, hNaV1.7 (Homo sapiens, UniProt Q15858).
T1 construct: expressed in transfected cells
The assay can be described thus: Patch voltage clamp electrophysiology (EP), Syncropatch 384PE, Nav1.7 in CHO cells.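 Also: Nav1.7 stably expressed from cDNA in CHO cells, holding potential of −50 mV kept for the entire experiment.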 The note with it: holding potential −50 mV, inhibition based on 7.5 min compound incubation. The class given is cell-based. On the technique in general: In patch-clamp work, channel activity is measured electrically.

The structures appear in SMILES notation. Counter-ions that a name gives are not always drawn. Like-named read-outs stand apart in the source and are kept apart here.

T1 sequence (Q15858 1-1977 isoform Q15858-3): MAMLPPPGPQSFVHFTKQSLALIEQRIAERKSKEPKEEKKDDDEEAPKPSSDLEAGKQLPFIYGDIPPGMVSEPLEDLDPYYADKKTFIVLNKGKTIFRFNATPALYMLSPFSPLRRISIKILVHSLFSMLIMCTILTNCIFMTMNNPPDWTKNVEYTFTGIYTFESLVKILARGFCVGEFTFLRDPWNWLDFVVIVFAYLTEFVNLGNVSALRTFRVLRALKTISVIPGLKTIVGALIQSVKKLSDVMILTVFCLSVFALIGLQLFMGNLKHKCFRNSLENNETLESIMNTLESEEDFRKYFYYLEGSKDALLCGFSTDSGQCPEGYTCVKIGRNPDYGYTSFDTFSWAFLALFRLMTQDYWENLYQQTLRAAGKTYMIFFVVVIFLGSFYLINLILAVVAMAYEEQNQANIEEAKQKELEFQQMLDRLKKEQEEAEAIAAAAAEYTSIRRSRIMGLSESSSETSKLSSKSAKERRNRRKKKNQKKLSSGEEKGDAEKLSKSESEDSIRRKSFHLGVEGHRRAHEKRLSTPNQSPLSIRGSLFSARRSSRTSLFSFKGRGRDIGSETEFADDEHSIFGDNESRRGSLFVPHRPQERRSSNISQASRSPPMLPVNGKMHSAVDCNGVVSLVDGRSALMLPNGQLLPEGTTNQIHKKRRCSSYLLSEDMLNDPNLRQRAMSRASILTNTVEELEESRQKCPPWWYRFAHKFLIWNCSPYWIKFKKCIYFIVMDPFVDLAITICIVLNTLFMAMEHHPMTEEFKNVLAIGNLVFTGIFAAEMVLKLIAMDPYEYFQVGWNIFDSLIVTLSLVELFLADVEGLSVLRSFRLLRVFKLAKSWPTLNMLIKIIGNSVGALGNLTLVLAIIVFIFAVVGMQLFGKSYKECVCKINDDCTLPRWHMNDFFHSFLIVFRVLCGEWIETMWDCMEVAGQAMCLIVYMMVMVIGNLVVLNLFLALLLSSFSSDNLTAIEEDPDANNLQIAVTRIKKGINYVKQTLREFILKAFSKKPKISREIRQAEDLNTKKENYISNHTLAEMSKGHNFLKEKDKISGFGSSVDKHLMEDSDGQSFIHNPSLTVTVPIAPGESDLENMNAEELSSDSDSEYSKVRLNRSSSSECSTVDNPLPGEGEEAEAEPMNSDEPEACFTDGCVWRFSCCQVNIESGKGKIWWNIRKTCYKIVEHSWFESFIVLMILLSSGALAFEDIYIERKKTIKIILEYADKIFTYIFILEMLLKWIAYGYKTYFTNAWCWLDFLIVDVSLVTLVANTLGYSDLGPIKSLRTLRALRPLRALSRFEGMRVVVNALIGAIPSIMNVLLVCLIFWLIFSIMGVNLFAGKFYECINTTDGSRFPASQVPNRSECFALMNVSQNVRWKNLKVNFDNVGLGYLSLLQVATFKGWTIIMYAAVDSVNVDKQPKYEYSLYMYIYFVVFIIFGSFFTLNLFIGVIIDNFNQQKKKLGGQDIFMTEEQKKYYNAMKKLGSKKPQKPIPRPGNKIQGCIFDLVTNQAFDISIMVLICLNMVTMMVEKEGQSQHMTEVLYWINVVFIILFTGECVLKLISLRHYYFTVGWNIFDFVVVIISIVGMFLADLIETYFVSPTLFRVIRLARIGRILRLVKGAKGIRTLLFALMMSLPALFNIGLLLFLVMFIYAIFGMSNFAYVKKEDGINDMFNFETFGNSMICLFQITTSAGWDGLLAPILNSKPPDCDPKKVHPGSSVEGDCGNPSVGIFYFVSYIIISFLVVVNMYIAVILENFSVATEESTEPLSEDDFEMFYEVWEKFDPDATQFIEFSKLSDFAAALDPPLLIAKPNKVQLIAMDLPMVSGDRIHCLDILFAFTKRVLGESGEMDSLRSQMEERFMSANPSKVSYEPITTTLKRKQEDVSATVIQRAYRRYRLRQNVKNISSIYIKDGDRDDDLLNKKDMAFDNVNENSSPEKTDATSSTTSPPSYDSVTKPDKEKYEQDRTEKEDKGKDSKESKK

`CN1CC(OC2CCN(S(=O)(=O)NC(=O)c3cc(C4CC4)c(OCC4CC4)cc3F)CC2)C1` [Example 9, 5-cyclopropyl-4-(cyclopropylmethoxy)-2-fluoro-N-((4-((1-methylazetidin-3-yl)oxy)piperidin-1-yl)sulfonyl)benzamide]: the IC50 (read-out: hNaV1.7 EP_SP) was 59 nM. In the case of `CN1CC[C@H](OC2CCN(S(=O)(=O)NC(=O)c3cc(Cl)c(OCC4CCCC4)cc3F)CC2)C1` (single isomer, unassigned) [Example 38], the IC50 (read-out: hNaV1.7 EP_SP) stood at 39 nM. The same measure, in the same setting: then `CN1CC(OC2CCN(S(=O)(=O)NC(=O)c3cc(C4CC4)c(OCc4ccccc4)cc3F)CC2)C1` [Example 236, 4-(benzyloxy)-5-cyclopropyl-2-fluoro-N-((4-((1-methylazetidin-3-yl)oxy)piperidin-1-yl)sulfonyl)benzamide], with 39 nM; and `O=C(NS(=O)(=O)c1ccc2c(c1)NCCC2)c1cc(Cl)c(OCC2CCCC2)cc1F` [Example 267, 5-chloro-4-(cyclopentylmethoxy)-2-fluoro-N-((1,2,3,4-tetrahydroquinolin-7-yl)sulfonyl)benzamide], with 800 nM; and `CN(C)[C@H]1CCCC[C@@H]1Nc1ccc(S(=O)(=O)NC(=O)c2cc(Cl)c(OCC3CCCC3)cc2F)cc1` [Example 64, 5-chloro-4-(cyclopentylmethoxy)-N-((4-(((1S,2S)-2-(dimethylamino)-cyclohexyl)amino)phenyl)sulfonyl)-2-fluorobenzamide formate], with 290 nM.

Take `O=C(NS(=O)(=O)c1ccc(OCc2ccccn2)cc1)c1cc(Cl)c(OCC2CCCC2)cc1F` [Example 301, 5-chloro-4-(cyclopentylmethoxy)-2-fluoro-N-((4-(pyridin-2-ylmethoxy)phenyl)sulfonyl)benzamide]: the IC50 (read-out: hNaV1.7 EP_SP) worked out at 39 nM. `O=C(NS(=O)(=O)c1ccc(NC2CCCCC2)cc1F)c1cc(Cl)c(OCC2CCCC2)cc1F` [Example 208, 5-chloro-N-((4-(cyclohexylamino)-2-fluorophenyl)sulfonyl)-4-(cyclopentylmethoxy)-2-fluorobenzamide]: for the setting “read-out: hNaV1.7 EP_SP”, the IC50 came to 880 nM.

For `O=C(NS(=O)(=O)c1ccc(OCC(F)(F)F)cc1)c1cc(Cl)c(OCC2CCCC2)cc1F` [Example 287, 5-chloro-4-(cyclopentylmethoxy)-2-fluoro-N-((4-(2,2,2-trifluoro-ethoxy)phenyl)sulfonyl)benzamide], where the note is “read-out: hNaV1.7 EP_SP”, the IC50 is 250 nM. As for `O=C(NS(=O)(=O)C1CC1)c1cc(Cl)c(OCC2CCCC2)cc1F` [Example 328, 5-chloro-4-(cyclopentylmethoxy)-N-(cyclopropylsulfonyl)-2-fluorobenzamide], where the note is “read-out: hNaV1.7 EP_SP”, the IC50 turned out to be 10 nM. The same measure, in the same setting: next, `O=C(NS(=O)(=O)C1CCNC1)c1cc(Cl)c(OCC2CCCC2)cc1F` (stereo not drawn) [Example 322, 5-chloro-4-(cyclopentylmethoxy)-2-fluoro-N-(pyrrolidin-3-ylsulfonyl)-benzamide]: 510 nM; `CN(C)[C@H]1CCCC[C@@H]1Nc1ccc(S(=O)(=O)Nc2nc3ncc(Br)cc3s2)c(F)c1` [Example 95, N-(6-bromothiazolo[4,5-b]pyridin-2-yl)-4-(((1S,2S)-2-(dimethylamino)-cyclohexyl)amino)-2-fluorobenzenesulfonamide]: 170 nM.

With `O=C(NS(=O)(=O)N1CCCc2ccccc21)c1cc(Cl)c(OCC2CCCC2)cc1F` [Example 14, 5-chloro-4-(cyclopentylmethoxy)-N-((3,4-dihydroquinolin-1(2H)-yl)sulfonyl)-2-fluorobenzamide], the IC50 (read-out: hNaV1.7 EP_SP) came out at 78 nM.

On to `O=C(NS(=O)(=O)N1CCC(OC2CCCNC2)CC1)c1cc(Cl)c(OCC2CCCC2)cc1F` (racemic) [Example 51, 5-chloro-4-(cyclopentylmethoxy)-2-fluoro-N-((4-(piperidin-3-yloxy)piperidin-1-yl)sulfonyl)benzamide 2,2,2-trifluoroacetate], for which the IC50 (read-out: hNaV1.7 EP_SP) was determined as 68 nM.

For the molecule `CN(C)[C@H]1CCCC[C@@H]1Nc1cc(F)c(S(=O)(=O)NC(=O)c2cc(C3CC3)c(OCC3CCCC3)cc2F)c(F)c1` [Example 204, 4-(cyclopentylmethoxy)-5-cyclopropyl-N-((4-(((1S,2S)-2-(dimethylamino)cyclohexyl)amino)-2,6-difluorophenyl)sulfonyl)-2-fluorobenzamide], the IC50 (read-out: hNaV1.7 EP_SP) came to 10 nM.

In the case of `O=C(NS(=O)(=O)[C@@H]1C[C@H]1c1ccccc1)c1cc(Cl)c(OCC2CCCC2)cc1F` (relative stereo) [Example 284, 5-chloro-4-(cyclopentylmethoxy)-2-fluoro-N-((trans-2-phenylcyclopropyl)sulfonyl)benzamide], the IC50 (read-out: hNaV1.7 EP_SP) was determined as 120 nM. The same measure, in the same setting: then `Cc1cc(C(=O)NS(=O)(=O)N2CCC(OC3CN(C)C3)CC2)c(F)cc1OCC1CCCC1` [Example 2, 4-(cyclopentylmethoxy)-2-fluoro-5-methyl-N-((4-((1-methylazetidin-3-yl)oxy)piperidin-1-yl)sulfonyl)benzamide], with 64 nM; and `CNC1CN(S(=O)(=O)NC(=O)c2cc(Cl)c(OCC3CCCC3)cc2F)C1` [Example 226, 5-chloro-4-(cyclopentylmethoxy)-2-fluoro-N-((3-(methylamino)azetidin-1-yl)sulfonyl)benzamide formate], with 750 nM; and `O=C(NS(=O)(=O)c1ccc2c(c1)CCCO2)c1cc(Cl)c(OCC2CCCC2)cc1F` [Example 265, 5-chloro-N-(chroman-6-ylsulfonyl)-4-(cyclopentylmethoxy)-2-fluorobenzamide], with 330 nM. Same read-out and setting: next, `CN(C)[C@H]1CCCC[C@@H]1Oc1ccc(S(=O)(=O)Nc2ccc(Oc3ccc(Cl)cc3)cn2)c(F)c1` [Example 258, N-(5-(4-chlorophenoxy)pyridin-2-yl)-4-(((1S,2S)-2-(dimethylamino)cyclohexyl)oxy)-2-fluorobenzenesulfonamide]: 830 nM; `O=C(NS(=O)(=O)C1CCCCC1)c1cc(Cl)c(OCC2CCCC2)cc1F` [Example 82, 5-chloro-N-(cyclohexylsulfonyl)-4-(cyclopentylmethoxy)-2-fluorobenzamide]: 30 nM. For `O=C(NS(=O)(=O)CC1Cc2ccccc2C1)c1cc(Cl)c(OCC2CCCC2)cc1F` [Example 266, 5-chloro-4-(cyclopentylmethoxy)-N-(((2,3-dihydro-1H-inden-2-yl)methyl)sulfonyl)-2-fluorobenzamide], the IC50 (read-out: hNaV1.7 EP_SP) worked out at 130 nM.

Regarding `O=C(NS(=O)(=O)C1CCNCC1)c1cc(Cl)c(OCC2CCCC2)cc1F` [Example 324, 5-chloro-4-(cyclopentylmethoxy)-2-fluoro-N-(piperidin-4-ylsulfonyl)-benzamide], for the setting “read-out: hNaV1.7 EP_SP”, the IC50 is 790 nM.

As to `C[C@H]1C[C@@H]1S(=O)(=O)NC(=O)c1cc(Cl)c(OCC2CCCC2)cc1F` (single isomer, unassigned) [Example 250], the IC50 (read-out: hNaV1.7 EP_SP) was found to be 9.8 nM. On the same count and under the same terms, then `CC(C)N1CC(OC2CCN(S(=O)(=O)NC(=O)c3cc(Cl)c(OCC4CCCC4)cc3F)CC2)C1` [Example 10, 5-chloro-4-(cyclopentylmethoxy)-2-fluoro-N-((4-((1-isopropylazetidin-3-yl)oxy)piperidin-1-yl)sulfonyl)benzamide], with 31 nM. With `N[C@@]12C[C@@H]1CN(S(=O)(=O)NC(=O)c1cc(Cl)c(OCC3CCCC3)cc1F)C2` (single isomer, unassigned) [Example 218, 2,2,2-trifluoroacetate], for the setting “read-out: hNaV1.7 EP_SP”, the IC50 worked out at 560 nM. In the case of `O=C(NS(=O)(=O)c1ccc(Oc2ccccc2)cc1)c1cc(Cl)c(OCC2CCCC2)cc1F` [Example 263, 5-chloro-4-(cyclopentylmethoxy)-2-fluoro-N-((4-phenoxyphenyl)sulfonyl)benzamide], where the note is “read-out: hNaV1.7 EP_SP”, the IC50 worked out at 220 nM. Still for that read-out and setting: then `O=C(NS(=O)(=O)N1CCC(OC2CCNC2)CC1)c1cc(C2CC2)c(OCC2CCCC2)cc1F` (stereo in doubt) [Example 30, (S)-4-(cyclopentylmethoxy)-5-cyclopropyl-2-fluoro-N-((4-(pyrrolidin-3-yloxy)piperidin-1-yl)sulfonyl)benzamide 2,2,2-trifluoroacetate], with 16 nM; and `CNC[C@@H]1CN(S(=O)(=O)NC(=O)c2cc(Cl)c(OCC3CCCC3)cc2F)CCO1` (single isomer, unassigned) [Example 26], with 190 nM; and `NC[C@@H]1CN(S(=O)(=O)NC(=O)c2cc(C3CC3)c(OCC3CCCC3)cc2F)CCO1` (single isomer, unassigned) [Example 25, 2,2,2-trifluoroacetate], with 15 nM. For `O=C(NS(=O)(=O)N1CC[C@@H]2[C@@H](C1)OCC(=O)N2c1ccccc1)c1cc(Cl)c(OCC2CCCC2)cc1F` (single isomer, unassigned) [Example 44], the IC50 (hNaV1.7 EP_SP) was found to be 130 nM.

As for `CO[C@H]1CC[C@@H](S(=O)(=O)NC(=O)c2cc(Cl)c(OCC3CCCC3)cc2F)CC1` [Example 87, cis-5-chloro-4-(cyclopentylmethoxy)-2-fluoro-N-((4-methoxycyclohexyl)sulfonyl)benzamide], the IC50 (read-out: hNaV1.7 EP_SP) came to 390 nM. `CCc1ccc(S(=O)(=O)NC(=O)c2cc(Cl)c(OCC3CCCC3)cc2F)cc1` [Example 243, 5-chloro-4-(cyclopentylmethoxy)-N-((4-ethylphenyl)sulfonyl)-2-fluorobenzamide]: the IC50 (read-out: hNaV1.7 EP_SP) was determined as 670 nM. Still for that read-out and setting: next, `O=C(NS(=O)(=O)N1CC[C@@H](OC2CCNCC2)C1)c1cc(Cl)c(OCC2CCCC2)cc1F` (single isomer, unassigned) [Example 213]: 420 nM; `O=C(NS(=O)(=O)N1CCC(OC2CN(CC(F)(F)F)C2)CC1)c1cc(Cl)c(OCC2CCCC2)cc1F` [Example 13, 5-chloro-4-(cyclopentylmethoxy)-2-fluoro-N-((4-((1-(2,2,2-trifluoroethyl)azetidin-3-yl)oxy)piperidin-1-yl)sulfonyl)benzamide]: 240 nM.

Turning to `CN(C)C1CCCN(c2cc(F)c(S(=O)(=O)NC(=O)c3cc(Cl)c(OCC4CCCC4)cc3F)c(F)c2)C1` (stereo not drawn) [Example 62, 5-chloro-4-(cyclopentylmethoxy)-N-((4-(3-(dimethylamino)piperidin-1-yl)-2,6-difluorophenyl)sulfonyl)-2-fluorobenzamide formate], the IC50 (read-out: hNaV1.7 EP_SP) stood at 17 nM. Still for that read-out and setting: then `O=C(NS(=O)(=O)N1CCC(O[C@@H]2CCNC2)CC1)c1cc(C2CC2)c(OCC2CCCC2)cc1F` (single isomer, unassigned) [Example 29, 2,2,2-trifluoroacetate], with 27 nM.
